Reference: patent US4981860A, “Pyridinium nitrate, composition containing same and their use for inhibiting platelet activating factor” (Takeda Chemical Industries, Ltd., priority 1989, dated 1991)
Where two headings read alike, the source gives them in different places.

Columns and labels:
[1] = Stability test in the form of powders (30 days of storage, HPLC content); type: physicochemical; conditions: for remaining at 720 h: 30 days, powder in closed glass bottles, read-out: remaining percentage
Procedure: The compounds obtained were examined for their stability in the form of powders. […] Procedure: About 100 mg each of the test substance was placed into glass bottles, which were then closed tightly and kept at room temperature (20±2° C.) and at 40° C. (not for the control compound) for 30 days. Determination of the content: An aliquot of the test substance was dissloved in the mobile phase for high performance liquid chromatography [acetonitrile:methanol:0.1% phosphoric acid=900:240:2100] and the content was determined by HPLC.
Conditions of HPLC: column YMC ODS A302 4.6×150 mm

[2] = test system: endotoxin (ET)-induced death; assay: Inhibition of endotoxin (ET)-induced death in rats; type: in vivo, rat (SD)
Procedure: Method: Male SD rats were used. ET (E. Coli, 0111, B4) (15 mg/kg) was given i.v. 5 min after the injection of the compound (6) obtained in the Production Example 1.

[3] = test system: endotoxin-induced disseminated intravascular coagulation (DIC); assay: Inhibition of experimental disseminated intravascular coagulation (DIC) in rats; type: in vivo, rat (SD)
Procedure: Method: Male SD rats were anesthetized with sodium pentobarbital. Endotoxin (E. Coli, 0111, B4) (ET) was infused into the right femoral vein at a rate of 250 μg/kg/hr for 4 hr. The compound (6) obtained in the Production Example 1 (Test compound) at a dose of 200 μg/kg was given i.v. bolus 5 min. before the infusion of ET and was then infused at a rate of 200 μg/kg/hr for 4 hr.

[4] = test system: death induced by anaphylactic shock; assay: Protective effect against death induced by anaphylactic shock in mice; type: in vivo; conditions: Mus musculus, iv, 1 h; i.v. 5 min before rechallenge with BSA (1 mg/kg, i.v.); survival at 60 min; read-out: ED50 (protection from anaphylactic shock)
Procedure: Method: Male mice were sensitized with bovine serum albumin (BSA) and killed Bordetella pertussis. Two to three weeks later, the mice were rechallenged with BSA (1 mg/kg, i.v.). Survival rate was determined 60 min after the injection of BSA. The compound (6) obtained in the Production Example 1 was given i.v. 5. min. before the rechallenge with BSA.

[5] = test system: Reversed passive Arthus reaction; assay: Reversed passive Arthus reaction in rat; type: in vivo, rat (Sprague-Dawley); conditions: iv, given intravenously, read-out: ID50 (inhibition of Arthus reaction, area stained blue)
Procedure: Hair was removed at the back of a male Sprague-Dawley rat (7-week-old, weighing about 250 g) under slight anesthesia with ether and a solution of the test substance [the compound (6) obtained in the Production Example 1] in physiological saline was injected into the caudal vein at the dose of 0.2 ml per 100 g of body weight. Immediately 1 ml of 0.5% antigenic egg albumin solution in physiological saline was injected into the caudal vein. Immediately 0.1 ml of the rabbit anti-egg albumin antiserum (containing 6 mg protein antibody/ml) was given subcutaneously at a site each on the right and the left side of the back. Three hours later, 1 ml of 1% Evans Blue solution in physiological saline was injected intravenously, the skin was removed after 30 minutes, and the area stained blue was measured (in mm^2). The extent of inhibition was calculated by comparing the area with that in the group without treatment with the test substance.

[6] = test system: PAF-induced airway constriction; assay: Inhibition of PAF in tracheal obstruction (PAF-induced airway constriction); type: in vivo, guinea pig (Hartley); conditions: 0.03 mg/kg i.v., two minutes before PAF (0.3 μg/kg i.v.)
Procedure: Male and female Hartley guinea pigs weighing about 400 g each were used. The animal was fixed in the supine position under anesthesia with urethane (1.5 g/kg, i.p.), one of the 4 branches of a cannula was inserted into the trachea, and two of the other 3 branches were connected to a respirator (Harvard apparatus rodent respirator). The last branch was connected to a bronchospasm transducer 7020 (Ugobasile). Air was pumped into the lung at the rate of 5 to 7 ml at a time and 70 times per minutes at the loading pressure to the lung of 10 cm H2 O, and the volume of the overflown air was recorded via a transducer on the Rectigraph (Rectigraph-8S, San-ei Sokki). After treatment with gallamine triethodide (1 mg/kg, i.v.), histamine dihydrochloride (10 μg/kg) was intravenously injected, and the responsiveness of the animal was investigated. Thirty seconds after intravenous injection of PAF (0.3 μg/kg), a maximal airway constriction was observed. Under the conditions, the test substance [the compound (6) obtained in the Production Example 1] was examined for its inhibitory action. The test substance was dissolved in physiological saline, and given intravenously two minutes before PAF administration.

[7] = test system: PAF-induced rabbit platelet aggregation; assay: Inhibition of PAF-induced rabbit platelet aggregation (platelet rich plasma); type: cell-based; conditions: Oryctolagus cuniculus, read-out: rate of inhibition of PAF-induced rabbit platelet aggregation
Procedure: Blood was drawn from a male rabbit directly by cardiopuncture with a syringe containing 3.15% citric acid as an anticoagulant (one volume to 9 volumes of blood). By centrifugation at 800 rpm for 10 minutes at room temperature, platelet rich plasma (PRP) was obtained. The residual blood was centrifuged again at 3000 rpm for 10 minutes to give platelet poor plasma (PPP) as the supernatant. PRP was diluted with PPP so that the platelet count might be adjusted to about 500,000 cells/μl. 250 μl of this PRP was stirred at 37° C. for 2 minutes, and the test substance [the compound (6) obtained in Production Example 1] was added. The mixture was stirred again for 2 minutes, followed by the addition of PAF of a certain concentration. Platelet aggregation was measured with a platelet aggregometer (manufactured by Rika Denki Co. in Japan). The aggregation inhibition by the test substance was determined as the percentage of reduction from the maximal transmittance (the maximal aggregation) by PAF in the control PRP.

PAF-induced hypotension = assay: Inhibitory action on PAF-induced hypotension in rats; type: in vivo, rat (Sprague-Dawley); conditions: for Inhibition of hypotensive effect: PAF 1 μg/kg i.v.
Procedure: Male Sprague-Dawley rats weighing about 250 g were used. Cannulas were inserted into the unilateral femoral artery for measurement of blood pressure and into the unilateral femoral vein for administration of the drug solution. Blood pressure was measured via a pressure transducer and recorded on a polygraph. Blood pressure decrease was measured after intravenous (i.v.) injection of PAF at 1 μg/kg, and then the test substance [the compound (6) in Production Example 1] was given intravenously or orally; PAF at 1 μg/kg was given intravenously 5 minutes and 1, 2, 4, 6, and 8 hours after the intravenous injection, and 1, 2, 4, 6 and 8 hours after the oral administration, and the blood pressure decrease was measured.
The inhibitory action on PAF-induced hypotension was expressed in the ratio of decrement of blood pressure due to PAF before the treatment with the test substance (mmHg) to the decrement after the treatment with the test substance (mmHg).

Acute toxicity in mice = type: in vivo, mouse (Jcl-ICR)
Text: Male J cl-ICR mice (5 animals) (aged 5 weeks) were used.

acute renal failure = assay: Effect on acute renal failure in rats (renal artery occlusion/reperfusion); type: in vivo, rat (Sprague Dawley (Jcl)); conditions: 30 mg/kg oral, 1 hour prior to occlusion
Procedure: Method: Male Sprague Dawley (Jcl) rats, 5 weeks old, were anesthetized with sodium pentobarbital (50 mg/kg, i.p.) and the renal artery was occluded bilaterally for 45 minutes followed by reperfusion for 20 hours. The blood was collected from the abdominal aorta under anesthesia for measurement of blood urea nitrogen (BUN).
Results: The concentration of BUN was markedly elevated 20 hours after reperfusion.

[8] = test system: endotoxin (ET)-induced hypotension; assay: Reversal of endotoxin (ET)-induced hypotension in rats; type: in vivo, rat (SD); conditions: Rattus norvegicus, iv; given eight minutes after ET (15 mg/kg)
Procedure: Method: Male SD rats were anesthetized with sodium pentobarbital, and the right femoral artery and left femoral vein were cannulated for blood pressure measurement and for injection of the compound (6) obtained in the Production Example 1 or ET (E. Coli, 0111, B4), respectively. The compound (6) obtained in the Production Example 1 was given eight minutes after the injection of ET (15 mg/kg).

CCC[n+]1cc(Br)cc(C(=O)N(CCC(=O)NCCOC(=O)N2CCc3ccccc3C2)c2ccccc2)c1 [Compound (7), 3-Bromo-5-[N-phenyl-N-[2-[[2-(1,2,3,4-tetrahydro-2-isoquinolylcarbonyloxy)ethyl]carbamoyl]ethyl]carbamoyl]-1-propylpyridinium chloride, reference compound]
remaining at 720 h ([1]; at room temperature (20±2° C.)): 65%

CCC[n+]1cc(Br)cc(C(=O)N(CCC(=O)NCCOC(=O)N2CCc3ccccc3C2)c2ccccc2)c1.O=[N+]([O-])[O-] [Compound (6), 3-bromo-5-[N-phenyl-N-[2-[[2-(1,2,3,4-tetrahydro-2-isoquinolylcarbonyloxy)ethyl]carbamoyl]ethyl]carbamoyl]-1-propylpyridinium nitrate]
Survival rate ([2]; 10 μg/kg i.v. 5 min before ET 15 mg/kg i.v., 6 day): 30%
Survival rate ([2]; 100 μg/kg i.v. 5 min before ET 15 mg/kg i.v., 22 hr, P<0.05 vs control): 60%
Survival rate ([2]; 100 μg/kg i.v. 5 min before ET 15 mg/kg i.v., 6 day, P<0.05 vs control): 40%
effect on survival rate of rats (in words) ([2]; 100 μg/kg, almost 1 week): significantly improved the survival rate
Fybrinogen ([3]; 200 μg/kg before ET, then 200 μg/kg/hr for 4 hr, P<0.01 vs control, control 0.3 ± 0.1, normal 2.7 ± 0.1): 1.2 ± 0.3 mg/ml plasma
FDP ([3]; 200 μg/kg before ET, then 200 μg/kg/hr for 4 hr, P<0.01 vs control, control 16.8 ± 2.3, normal 0.5 ± 0.0): 4.6 ± 0.8 μg/ml plasma
PT (prothrombin time) ([3]; 200 μg/kg before ET, then 200 μg/kg/hr for 4 hr, P<0.01 vs control, control 18.9 ± 1.3, normal 11.2 ± 0.2): 14.0 ± 0.4 s
Platelets ([3]; 200 μg/kg before ET, then 200 μg/kg/hr for 4 hr, P<0.01 vs control, control 23 ± 3, normal 71 ± 3): 40 ± 4 × 10^4 /μl
APTT (activated partial thromboplastin time) ([3]; 200 μg/kg before ET, then 200 μg/kg/hr for 4 hr, P<0.01 vs control, control 58.3 ± 3.6, normal 35.3 ± 1.3): 42.8 ± 1.5 s
effect on changes in DIC parameters (in words) ([3]; 200 μg/kg i.v. bolus + 200 μg/kg/hr for 4 hr): significantly inhibited the changes in these DIC parameters
ED50 [4]: 2.6 µg/kg
ED50 [5]: 1.2 µg/kg
inhibition of PAF-induced airway constriction [6]: 91.3%
inhibition at 3 µM ([7]; 3 × 10^-6 M): 100%
inhibition at 0.3 µM ([7]; 3 × 10^-7 M): 100%
inhibition at 0.03 µM ([7]; 3 × 10^-8 M): 71%
stability (in words) ([1]; general statement, compared with the corresponding chloride): more stable than the corresponding chloride
remaining at 720 h ([1]; powder, closed glass bottles, at 40° C.): 99.3%
remaining at 720 h ([1]; powder, closed glass bottles, at room temperature (20±2° C.)): 100%
Inhibition of hypotensive effect (PAF-induced hypotension; 0.01 mg/kg i.v., 5 minutes): 93%
Inhibition of hypotensive effect (PAF-induced hypotension; 0.01 mg/kg i.v., 1 hour): 84%
Inhibition of hypotensive effect (PAF-induced hypotension; 0.01 mg/kg i.v., 2 hour): 68%
Inhibition of hypotensive effect (PAF-induced hypotension; 0.01 mg/kg i.v., 4 hour): 48%
Inhibition of hypotensive effect (PAF-induced hypotension; 0.01 mg/kg i.v., 6 hour): 44%
Inhibition of hypotensive effect (PAF-induced hypotension; 0.01 mg/kg i.v., 8 hour): 24%
Inhibition of hypotensive effect (PAF-induced hypotension; 1 mg/kg p.o., 1 hour): 69%
Inhibition of hypotensive effect (PAF-induced hypotension; 1 mg/kg p.o., 2 hour): 87%
Inhibition of hypotensive effect (PAF-induced hypotension; 1 mg/kg p.o., 4 hour): 82%
Inhibition of hypotensive effect (PAF-induced hypotension; 1 mg/kg p.o., 6 hour): 76%
Inhibition of hypotensive effect (PAF-induced hypotension; 1 mg/kg p.o., 8 hour): 69%
PAF-antagonism after oral administration (in words) (PAF-induced hypotension; general statement, oral): excellent PAF-antagonism even after oral administration
death until one week later (acute toxicity, intravenous) (Acute toxicity in mice; 10 mg/kg intravenously, male mice, 5 animals): no death was observed
death until one week later (acute toxicity, oral) (Acute toxicity in mice; 1000 mg/kg orally, male mice, 5 animals): no death was observed
toxicity (in words) (Acute toxicity in mice; general statement): low toxicity
effect on elevation of BUN (in words) (acute renal failure): inhibited significantly the elevation of BUN
Blood urea nitrogen (BUN) (acute renal failure; 20 hours after reperfusion, P<0.05, control 110 ± 4): 88 ± 2 mg/dL
ED50 [8]: 1.2 µg/kg
